The values that follow come from patent US7910611B2, “Therapeutic agent for restenosis” (Kyowa Hakko Kirin Co., Ltd., priority 2005, dated 2011).

Series [1] deals with normal human aortic smooth muscle cells. Kind of series: Cell growth inhibition tests against human vascular smooth muscle cells (XTT). The series is classed as cell-based. Conditions: for GI50: read-out: growth inhibitory activity in terms of the GI50 value (concentration of 50% growth inhibition), cultured 72 hours with test compound, XTT, absorbance at 490 nm. On the procedure:
Cell Growth Inhibition Tests Against Human Vascular Smooth Muscle Cells
As human vascular smooth muscle cells, normal human aortic smooth muscle cells (Cambrex, catalog No. C-2571) were used. HuMedia-SB2 basal medium (Kurabo Industries, Ltd., catalog No. KS-2150S) containing 5% fetal bovine serum (Kurabo Industries, Ltd., catalog No. KS-6150), 0.5 ng/mL human recombinant epidermal growth factor (Kurabo Industries, Ltd., catalog No. KS-6150), 2 ng/mL human recombinant basic fibroblast growth factor (Kurabo Industries, Ltd., catalog No. KS-6150), 5 μg/mL insulin (Kurabo Industries, Ltd., catalog number KS-6150), 50 μg/mL gentamycin (Kurabo Industries, Ltd., catalog No. KS-6150), and 50 ng/mL amphotericin B (Kurabo Industries, Ltd., catalog No. KS-6150) was used for cell culture. The cells were cultured at 37° C. in a 5% carbon dioxide atmosphere.
The normal human aortic smooth muscle cells (1000 cells/well) were seeded in each well of 96-well plates (Nunc, catalog No. 167008), and cultured overnight. Test compounds diluted stepwise were added, and the cells were further cultured for 72 hours (final volume: 100 μL/well). Fifty μL XTT labeling mixture of Cell Proliferation Kit II (XTT) (Roche Diagnostics, catalog No. 1465015) was added to each well, and the plates were incubated at 37° C. After 4 hours, absorbance at 490 nm (reference wavelength: 655 nm) was measured with a plate reader (Molecular Device, SpectraMax 340PC^384). Growth ratios of the cells in the wells treated with the test compound was calculated based on the growth ratio of the cells in the control well treated with solvent (dimethyl sulfoxide (DMSO)) for 72 hours, which was defined as 100%.

Where a name gives a salt, the structure may show the parent alone.

Turning to `CCC(=O)N1N=C(N2CCCC2=O)SC1(CCNS(C)(=O)=O)c1ccccc1` (single isomer, unassigned; (-)) [Compound e, (−)-N-{2-[5-(2-Oxopyrrolidin-1-yl)-2-phenyl-3-propionyl-2,3-dihydro-1,3,4-thiadiazol-2-yl]ethyl}methanesulfonamide], the melting point lay within 188 to 191 °C. Also, the GI50 in series [1] was below 10 µM.
`CCNCCS(=O)(=O)NCCC1(c2ccccc2)SC(NC(=O)C(C)(C)C)=NN1C(=O)C(C)(C)C` (stereo not shown) [Compound i, N-{4-(2,2-Dimethylpropionyl)-5-[2-(2-ethylaminoethanesulfonylamino)-ethyl]-5-phenyl-4,5-dihydro-1,3,4-thiadiazol-2-yl}-2,2-dimethylpropanamide]: the GI50 in series [1] was below 10 µM.
Consider `CC(C)(C)C(=O)NC1=NN(C(=O)C(C)(C)C)C(CN)(c2ccccc2)S1` (stereo not shown) (as salt: hydrochloride) [Compound j, N-[5-Aminomethyl-4-(2,2-dimethylpropionyl)-5-phenyl-4,5-dihydro-1,3,4-thiadiazol-2-yl]-2,2-dimethylpropanamide], for which the melting point lay within 175 to 182 °C.
Consider `CN(C)CCCS(=O)(=O)NCC1(c2ccccc2)SC(NC(=O)C(C)(C)C)=NN1C(=O)C(C)(C)C` (single isomer, unassigned; (-)) [Compound n, (−)-N-[5-(3-Dimethylaminopropanesulfonylaminomethyl)-4-(2,2-dimethylpropionyl)-5-phenyl-4,5-dihydro-1,3,4-thiadiazol-2-yl]-2,2-dimethylpropanamide], for which the melting point fell in the range of 92 to 95 °C. In series [1], the GI50 is below 10 µM.
In turn, `CC(=O)N1N=C(NC(=O)C(C)(C)C)SC1(CCNS(C)(=O)=O)c1ccccc1` (single isomer, unassigned; (-)) [Compound f, (−)-N-[4-Acetyl-5-(2-methanesulfonylaminoethyl)-5-phenyl-4,5-dihydro-1,3,4-thiadiazol-2-yl]-2,2-dimethylpropanamide] registered a melting point of 187 to 190 °C.
As to `CC(C)C(=O)N1N=C(NC(=O)C(C)(C)C)SC1(CCNS(C)(=O)=O)c1ccccc1` (single isomer, unassigned; (-)) [Compound d, (−)-N-[4-Isobutyryl-5-(2-methanesulfonylaminoethyl)-5-phenyl-4,5-dihydro-1,3,4-thia-diazol-2-yl]-2,2-dimethylpropanamide], the GI50 in series [1] is below 10 µM.
Turning to `CC(C)(C)C(=O)NC1=NN(C(=O)C(C)(C)C)C(CNS(=O)(=O)CCSCCN)(c2ccccc2)S1` (stereo not shown) [Compound 24, N-{5-[2-(2-Aminoethylsulfanyl)ethanesulfonylaminomethyl]-4-(2,2-dimethyl-propionyl)-5-phenyl-4,5-dihydro[1,3,4]thiadiazol-2-yl}-2,2-dimethyl-propionamide], the GI50 in series [1] was below 10 µM.
For the compound `CCNCCS(=O)(=O)NCC1(c2ccccc2)SC(NC(=O)C(C)(C)C)=NN1C(=O)C(C)(C)C` (single isomer, unassigned; (-)) [Compound l, (−)-N-[4-(2,2-Dimethylpropionyl)-5-(2-ethylaminoethanesulfonylaminomethyl)-5-phenyl-4,5-dihydro-1,3,4-thiadiazol-2-yl]-2,2-dimethylpropanamide], in series [1], the GI50 was below 10 µM.
The same measure, in the same setting: the figure for `CCC(=O)N1N=C(NC(=O)C(C)(C)C)SC1(CCNS(C)(=O)=O)c1ccccc1` (single isomer, unassigned; (-)) [Compound b, (−)-N-[5-(2-Methanesulfonylaminoethyl)-5-phenyl-4-propionyl-4,5-dihydro-1,3,4-thiadiazol-2-yl]-2,2-dimethylpropanamide] is below 10 µM.
`CN(C)CCS(=O)(=O)NCC1(c2ccccc2)SC(NC(=O)C(C)(C)C)=NN1C(=O)C(C)(C)C` (single isomer, unassigned; (-)) [Compound m, (−)-N-[5-(2-Dimethylaminoethanesulfonylaminomethyl)-4-(2,2-dimethylpropionyl)-5-phenyl-4,5-dihydro-1,3,4-thiadiazol-2-yl]-2,2-dimethylpropanamide] returned a melting point of 101 to 104 °C. In series [1] (optically active compound versus racemic mixture), the “inhibitory activity compared with the corresponding racemic mixture (Compound 12)” value is reported as “more potent inhibitory activities”. In addition, in series [1], the GI50 is below 10 µM.
Consider `CC(=O)N1N=C(N2CCCCC2=O)SC1(CCNS(C)(=O)=O)c1ccccc1` (single isomer, unassigned; (-)) [Compound h, (−)-N-{2-[3-Acetyl-5-(2-oxopiperidino)-2-phenyl-2,3-dihydro-1,3,4-thiadiazol-2-yl]ethyl}methanesulfonamide], for which the melting point was in the range of 169 to 171 °C. Further, the GI50 in series [1] was below 10 µM.
For the compound `C=CS(=O)(=O)NCC1(c2ccccc2)SC(NC(=O)C(C)(C)C)=NN1C(=O)C(C)(C)C` (stereo not shown) [Compound k, N-[4-(2,2-Dimethylpropionyl)-5-ethenesulfonylaminomethyl-5-phenyl-4,5-dihydro-1,3,4-thiadiazol-2-yl]-2,2-dimethylpropanamide], the GI50 in series [1] was below 10 µM.
In turn, `CC(=O)N1N=C(N2CCCC2=O)SC1(CCNS(C)(=O)=O)c1ccccc1` (stereo not shown) [Compound g, N-{2-[3-Acetyl-5-(2-oxopyrrolidin-1-yl)-2-phenyl-2,3-dihydro-1,3,4-thiadiazol-2-yl]-ethyl}methanesulfonamide] registered a melting point of 137 to 140 °C.
Consider `CC(C)(C)C(=O)NC1=NN(C(=O)C(C)(C)C)C(CCCC(=O)NCCO)(c2ccccc2)S1` (stereo not shown) [Compound o, 4-[3-(2,2-Dimethylpropionyl)-5-(2,2-dimethylpropionylamino)-2-phenyl-2,3-dihydro-1,3,4-thiadiazol-2-yl]-N-(2-hydroxyethyl)butanamide], for which the GI50 in series [1] was below 10 µM.
Compound `CC(C)(C)C(=O)N1N=C(N2CCCC2=O)SC1(CCNS(C)(=O)=O)c1ccccc1` (single isomer, unassigned; (-)) [Compound c, (−)-N-{2-[3-(2,2-Dimethylpropionyl)-5-(2-oxopyrrolidin-1-yl)-2-phenyl-2,3-dihydro-1,3,4-thiadiazol-2-yl]ethyl}methanesulfonamide] returned a melting point of 107 to 110 °C.
Consider `CC(C)(C)C(=O)NC1=NN(C(=O)C(C)(C)C)C(CCNS(C)(=O)=O)(c2ccccc2)S1` (single isomer, unassigned; (-)) [Compound a, (−)-N-[4-(2,2-Dimethylpropionyl)-5-(2-methanesulfonylaminoethyl)-5-phenyl-4,5-dihydro-1,3,4-thiadiazol-2-yl]-2,2-dimethylpropanamide], for which the GI50 in series [1] was below 10 µM.
As for `CC(C)(C)C(=O)NC1=NN(C(=O)C(C)(C)C)C(CN)(c2ccccc2)S1` (stereo not shown) [Compound j, N-[5-Aminomethyl-4-(2,2-dimethylpropionyl)-5-phenyl-4,5-dihydro-1,3,4-thiadiazol-2-yl]-2,2-dimethylpropanamide], the GI50 in series [1] was below 10 µM.
